The record followed here is patent publication US20160159861A1, “APJ Receptor Compounds” (priority 2013, published 2016).

Molecules are shown by their SMILES. pEC50: −log10 of the molar value. Where two headings read alike, the source gives them in different places. Peptide text beside a SMILES is read from it.

Broadly, the pEC50 is the EC50 on a negative log10 scale, so that one unit is a factor of ten.

The target of the experiment is T1, human APJ receptor (hAPJ) (Homo sapiens, UniProt P35414).
T1 construct: expressed in transfected cells
T1 sequence (P35414 1-380): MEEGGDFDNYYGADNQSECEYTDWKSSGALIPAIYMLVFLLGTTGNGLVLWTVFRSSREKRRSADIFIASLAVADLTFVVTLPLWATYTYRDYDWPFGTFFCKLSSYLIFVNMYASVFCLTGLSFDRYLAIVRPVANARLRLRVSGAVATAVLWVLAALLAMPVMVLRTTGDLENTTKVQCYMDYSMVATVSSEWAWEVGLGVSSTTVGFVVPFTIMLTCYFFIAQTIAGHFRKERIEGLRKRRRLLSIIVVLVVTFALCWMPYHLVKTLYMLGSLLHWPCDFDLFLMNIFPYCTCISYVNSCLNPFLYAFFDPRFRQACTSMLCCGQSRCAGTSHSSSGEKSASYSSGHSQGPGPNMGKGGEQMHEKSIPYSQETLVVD
Nature of the experiment: HTRF cAMP assay: inhibition of NKH477-stimulated cAMP in HEK cells stably expressing hAPJ. The conditions noted are these: for Emax: HEK293, read-out: % IA, bound stated; for % IA (cAMP inhibition, hAPJ HEK): intrinsic activity; for Ranking: composite class of EC50 (hAPJ), % IA and % histamine or formal (+) charge. In kind it is cell-based. From the text:
HTRF cAMP Assay and IP-One Assay (Cisbio)
HTRF (homogeneous time resolved fluorescence) is a technology developed by Cisbio Bioassays based on TR-FRET (time-resolved fluorescence resonance energy transfer). Cisbio Bioassays has developed a wide selection of HTRF-based assays compatible with whole cells, thereby enabling functional assays to run under more physiological conditions. The IP-One assays are competitive immunoassays using cryptate-labeled anti-IP1 monoclonal antibody and d2-labeled IP1. IP1 is a relatively stable downstream metabolite of IP3, and accumulates in cells following Gq receptor activation.
cAMP kits based on a competitive immunoassay using cryptate-labeled anti-cAMP antibody and d2-labeled cAMP were used to assay the effects of APJ compounds of the present invention. […] Cells are treated with 1 nG/mL doxycycline and seeded in all white 96 well plates @40 k/well overnight.
On the technique in general: TR-FRET usually uses a lanthanide donor and a delayed reading to cut background.

Where [1] appears, read: HTRF cAMP Assay, per data of Table 6.
Where [2] appears, read: HTRF cAMP Assay, per data of Table 6, read-out: EC50 (hAPJ), inhibition of cAMP production, bound stated.
Where [3] appears, read: Table 6, hAPJ HEK cells, NKH477-stimulated cAMP, read-out: EC50 (cAMP inhibition, hAPJ HEK).

`CCCCCCCCCCCCCCCC(=O)N[C@@H](CC(=O)O)C(=O)N[C@H](C(=O)N[C@@H](Cc1c[nH]cn1)C(=O)N[C@@H](CCCNC(=N)N)C(=O)N[C@@H](CO)C(=O)N[C@@H](CO)C(=O)N[C@@H](CCC(=O)O)C(=O)N[C@H](CCCCN)C(=O)N[C@@H](CCCNC(=N)N)C(=O)N[C@@H](CCCNC(=N)N)C(=O)N[C@@H](CO)C(=O)N[C@@H](C)C(=O)N[C@@H](CC(=O)O)C(=O)N[C@H](C(=O)N[C@@H](Cc1ccccc1)C(=O)N[C@H](C(N)=O)[C@@H](C)CC)[C@@H](C)CC)C(C)C` [Compound 35] (HELM PEPTIDE1{[CCCCCCCCCCCCCCCC(=O)[*:2]].D.V.H.R.S.S.E.[dK].R.R.S.A.D.I.F.I.[am]}$$$$V2.0): the Ranking entry is “*** (EC50 25-50 nM (hAPJ), % IA 50-79% and either % histamine≦35% or formal (+) charge≦1)”. Further, the negative logarithm of the EC50 (pEC50) (EC50 (cAMP inhibition, hAPJ HEK), Table 6, hAPJ HEK cells, NKH477-stimulated cAMP) was 7.49. The pEC50 (EC50 (hAPJ), inhibition of cAMP production, bound stated, HTRF cAMP Assay, per data of Table 6) was 7.30 to 7.60. Also, the Emax under setting [1] lay in the range of 50 to 79%. Further, the “% IA (cAMP inhibition, hAPJ HEK)” value (Table 6, hAPJ HEK cells) is 90%.
In the case of `CCCCCCCCCCCCCCCC(=O)N[C@H](C(=O)N[C@H](C(=O)N[C@@H](CC(=O)O)C(=O)N[C@@H](CCCNC(=N)N)C(=O)N[C@@H](CO)C(=O)N[C@@H](CO)C(=O)N[C@@H](CCC(=O)O)C(=O)N[C@H](CCCCN)C(=O)N[C@@H](CCCNC(=N)N)C(=O)N[C@@H](CCCNC(=N)N)C(=O)N[C@@H](CO)C(=O)N[C@@H](C)C(=O)N[C@@H](CC(=O)O)C(=O)N[C@@H](Cc1ccc(CN)cc1)C(=O)N[C@@H](Cc1ccccc1)C(=O)N[C@H](C(N)=O)[C@@H](C)CC)C(C)C)[C@@H](C)O` [Compound 34, TVDRSSEkRRSAD(p-CH2NH2-Phe)FI] (HELM PEPTIDE1{[CCCCCCCCCCCCCCCC(=O)[*:2]].T.V.D.R.S.S.E.[dK].R.R.S.A.D.[NCc1ccc(C[C@H](N[*:1])C(=O)[*:2])cc1].F.I.[am]}$$$$V2.0), the Ranking result is “*** (EC50 25-50 nM (hAPJ), % IA 50-79% and either % histamine≦35% or formal (+) charge≦1)”. Besides, the Emax under setting [1] lay within 50 to 79%. In addition, the pEC50 under setting [2] was 7.30 to 7.60. Under setting [3], the pEC50 is 7.52. Besides, the “% IA (cAMP inhibition, hAPJ HEK)” value (Table 6, hAPJ HEK cells) is given as 104%.
For `CCCCCCCCCCCCCCCC(=O)N[C@@H](CC(=O)O)C(=O)N[C@H](C(=O)N[C@@H](Cc1c[nH]cn1)C(=O)N[C@@H](CCCNC(=N)N)C(=O)N[C@@H](CO)C(=O)N[C@@H](CO)C(=O)N[C@@H](CCC(=O)O)C(=O)N[C@H](CCCCN)C(=O)N[C@@H](CCCNC(=N)N)C(=O)N[C@@H](CCCNC(=N)N)C(=O)N[C@@H](CO)C(=O)N[C@@H](C)C(=O)N[C@@H](CC(=O)O)C(=O)N[C@@H](CCC(N)=O)C(=O)N[C@@H](Cc1ccccc1)C(=O)N[C@H](C(N)=O)[C@@H](C)CC)C(C)C` [Compound 36] (HELM PEPTIDE1{[CCCCCCCCCCCCCCCC(=O)[*:2]].D.V.H.R.S.S.E.[dK].R.R.S.A.D.Q.F.I.[am]}$$$$V2.0), the Ranking result is “***** (EC50≦25 nM (hAPJ), % IA≧80% and either % histamine≦35% or formal (+) charge≦1)”. Further, the Emax under setting [1] was no less than 80%. Further, the pEC50 under setting [2] was no less than 7.60. Further, the pEC50 under setting [3] was 8.70. Further, under “Table 6, hAPJ HEK cells”, the “% IA (cAMP inhibition, hAPJ HEK)” value came out at 101%. Besides, for the setting “concentration response curves, FIGS. 1 and 2, HEK cells stably expressing APJ”, the “inhibition of NKH477-stimulated increase in cAMP, dose dependent” value is given as “inhibited”.
